Active and inactive are the calls of the source. The rule behind the calls is not given here.
Experiments:
[1] = biological target: Mu-type opioid receptor (Mus musculus, UniProt P42866); experiment: Displacement of [3H]DAMGO from mouse mu opioid receptor in whole brain without cerebellum
[2] = biological target: Delta-type opioid receptor (Mus musculus, UniProt P32300); experiment: Displacement of [3H]DPDPE from mouse delta opioid receptor in whole brain without cerebellum
[3] = biological target: Kappa-type opioid receptor (Cavia porcellus, UniProt P41144); experiment: Displacement of [3H]U69,593 from guinea pig kappa opioid receptor in cerebellum
Sequence of Kappa-type opioid receptor (P41144 whole entry): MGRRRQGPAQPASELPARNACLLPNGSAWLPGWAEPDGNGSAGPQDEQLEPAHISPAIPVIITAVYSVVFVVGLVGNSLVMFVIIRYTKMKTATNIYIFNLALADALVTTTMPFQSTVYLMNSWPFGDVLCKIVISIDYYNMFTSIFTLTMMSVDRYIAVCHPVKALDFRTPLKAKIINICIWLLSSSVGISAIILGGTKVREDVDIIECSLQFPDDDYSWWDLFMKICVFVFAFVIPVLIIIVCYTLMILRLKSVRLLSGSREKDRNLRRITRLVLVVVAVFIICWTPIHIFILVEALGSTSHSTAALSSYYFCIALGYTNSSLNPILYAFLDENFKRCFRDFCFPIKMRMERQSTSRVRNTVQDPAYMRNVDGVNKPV

[4] = Selectivity ratio of Ki for guinea pig kappa opioid receptor to mouse mu opioid receptor
[5] = species: Mus musculus; experiment: Selectivity ratio of Ki for mouse delta opioid receptor to mouse mu receptor
[6] = system: Mus musculus; experiment: Antinociceptive activity in sc dosed mouse assessed as inhibition of acetic acid-induced writhing administered 15 mins before acetic acid challenge measured after 10 mins relative to control; assay type: functional
[7] = system: Mus musculus; experiment: Ratio of morphine ED50 to compound ED50 for antinociceptive activity in sc dosed mouse assessed as inhibition of acetic acid-induced writhing administered 15 mins before acetic acid challenge measured after 10 mins; assay type: functional

Sequence of Delta-type opioid receptor (P32300 whole entry): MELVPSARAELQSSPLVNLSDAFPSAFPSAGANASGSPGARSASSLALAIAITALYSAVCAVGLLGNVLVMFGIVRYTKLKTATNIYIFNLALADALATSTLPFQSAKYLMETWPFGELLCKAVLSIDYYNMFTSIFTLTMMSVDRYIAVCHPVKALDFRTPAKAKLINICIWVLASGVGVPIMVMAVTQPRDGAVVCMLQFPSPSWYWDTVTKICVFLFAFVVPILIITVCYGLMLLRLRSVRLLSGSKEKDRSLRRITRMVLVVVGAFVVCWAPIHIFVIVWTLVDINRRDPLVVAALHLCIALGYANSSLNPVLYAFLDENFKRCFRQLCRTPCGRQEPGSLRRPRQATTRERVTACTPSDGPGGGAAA
Sequence of Mu-type opioid receptor (P42866 whole entry): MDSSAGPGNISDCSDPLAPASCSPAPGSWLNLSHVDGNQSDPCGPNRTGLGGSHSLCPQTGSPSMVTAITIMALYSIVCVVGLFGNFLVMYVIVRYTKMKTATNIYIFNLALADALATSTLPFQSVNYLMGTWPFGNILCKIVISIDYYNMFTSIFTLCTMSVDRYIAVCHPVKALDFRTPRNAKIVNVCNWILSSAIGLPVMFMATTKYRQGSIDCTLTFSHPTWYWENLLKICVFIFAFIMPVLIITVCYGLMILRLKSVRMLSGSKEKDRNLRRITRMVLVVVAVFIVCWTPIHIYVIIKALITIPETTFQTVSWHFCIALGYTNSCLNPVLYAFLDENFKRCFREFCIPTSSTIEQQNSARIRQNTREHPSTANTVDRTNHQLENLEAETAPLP

SMILES	Ki [1]	Ki [2]	Ki [3]	Ratio Ki [4]	Ratio Ki [5]	inhibition [6]	ED50 [6]	Ratio ED50 [7]
Oc1ccc2c3c1O[C@H]1[C@]4(CC[C@@]5(O)[C@@H](C2)N(CC2CC2)CC[C@]315)O[C@@H]1CO[C@H]2N1[C@@H]4O[C@]21CC[C@@]2(O)[C@H]3Cc4ccc(O)c5c4[C@@]2(CCN3CC2CC2)[C@H]1O5	38.2 nM	> 1000 nM	247 nM	6.47	–	–	–	–
CC(C)CN1CC[C@]23c4c5ccc(O)c4O[C@H]2[C@]2(CC[C@@]3(O)[C@H]1C5)O[C@H]1CO[C@@H]3N1[C@H]2O[C@]31CC[C@@]2(O)[C@H]3Cc4ccc(O)c5c4[C@@]2(CCN3CC(C)C)[C@H]1O5	25.3 nM	> 1000 nM	119 nM	4.7	–	–	–	–
Oc1ccc2c3c1O[C@H]1[C@]4(CC[C@H]5[C@@H](C2)N(CC2CC2)CC[C@@]351)O[C@H]1CO[C@@H]2N1[C@H]4O[C@]21CC[C@H]2[C@H]3Cc4ccc(O)c5c4[C@@]2(CCN3CC2CC2)[C@H]1O5	0.719 nM	7.8 nM	6.36 nM	8.84	10.8	–	–	–
Oc1ccc2c3c1O[C@@H]1[C@]34CCN(CC3CC3)[C@H](C2)[C@]4(O)CC[C@@]12C=N[C@@H]([C@]1(O)CC[C@@]3(O)[C@H]4Cc5ccc(O)c6c5[C@@]3(CCN4CC3CC3)[C@H]1O6)O2	1.03 nM	39.6 nM	1.66 nM	1.61	38.4	–	–	–
Oc1ccc2c3c1O[C@H]1[C@]4(CC[C@@]5(O)[C@@H](C2)N(CC2CC2)CC[C@]315)O[C@H]1CO[C@@H]2N1[C@H]4O[C@]21CC[C@@]2(O)[C@H]3Cc4ccc(O)c5c4[C@@]2(CCN3CC2CC2)[C@H]1O5	0.48 nM	16.2 nM	2.75 nM	5.73	33.6	–	–	–
Oc1ccc2c3c1O[C@@H]1[C@]34CCN(CC3CC3)[C@H](C2)[C@]4(O)CC[C@@]12C=N[C@H]([C@]1(O)CC[C@@]3(O)[C@H]4Cc5ccc(O)c6c5[C@@]3(CCN4CC3CC3)[C@H]1O6)O2	1.9 nM	53.7 nM	1.16 nM	0.61	28.3	–	–	–
C=CCN1CC[C@]23c4c5ccc(O)c4O[C@H]2C(=O)CC[C@@]3(O)[C@H]1C5	–	–	–	–	–	inactive	–	–
Oc1ccc2c(c1)[C@]13CCN(CC4CC4)[C@H](C2)[C@]1(O)CC[C@@]1(C3)O[C@H]2CO[C@@H]3N2[C@H]1O[C@]31CC[C@@]2(O)[C@H]3Cc4ccc(O)cc4[C@@]2(CCN3CC2CC2)C1	0.771 nM	5.98 nM	8.67 nM	11.2	7.76	–	–	–
CN1CC[C@]23c4c5ccc(O)c4O[C@H]2[C@]2(CC[C@@]3(O)[C@H]1C5)O[C@H]1CO[C@@H]3N1[C@H]2O[C@]31CC[C@@]2(O)[C@H]3Cc4ccc(O)c5c4[C@@]2(CCN3C)[C@H]1O5	2.09 nM	52.9 nM	337 nM	161	25.3	Dose-dependent effect	0.14 mg/kg	4
Oc1ccc2c3c1O[C@H]1[C@]4(CC[C@@]5(O)[C@@H](C2)N(CC2CCC2)CC[C@]315)O[C@H]1CO[C@@H]2N1[C@H]4O[C@]21CC[C@@]2(O)[C@H]3Cc4ccc(O)c5c4[C@@]2(CCN3CC2CCC2)[C@H]1O5	2.6 nM	50 nM	176 nM	67.7	19.2	–	–	–
